Where two headings read alike, the source gives them in different places.
System: IL-1β production in PMA-differentiated THP-1 cells
Assay: IL-1β production in PMA-differentiated THP-1 cells stimulated with gramicidin (hTHP-1 assay, 2% fetal bovine serum; Procedures 1-3)
Type: cell-based, human
Method in brief: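 IL-1β released into supernatants was read by HTRF after 2 h gramicidin (5 μM) challenge. Before challenge, compounds (3-fold dilutions, top 100 μM, 0.37% DMSO) were given 1 h on THP-1 cells differentiated with PMA (20 ng/ml, 16-18 h) and held in 2% FBS medium.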

[1] = Table B3, hTHP-1 assay containing 2% fetal bovine serum, gramicidin stimulation, IL-1β readout, read-out: hTHP-1 IC50
[2] = Homo sapiens, THP-1, hTHP-1 assay containing 2% fetal bovine serum, Table B2, class symbols, read-out: IC50
[3] = Homo sapiens, THP-1, Table B3, hTHP-1 assay containing 2% fetal bovine serum, gramicidin stimulation, IL-1β readout, read-out: hTHP-1 IC50
[4] = hTHP-1 assay containing 2% fetal bovine serum, Table B2, class symbols, read-out: IC50
[5] = Table B1, hTHP-1 assay containing 2% fetal bovine serum, gramicidin stimulation, IL-1β readout, read-out: hTHP-1 IC50 (average)

Structure (SMILES): CC(NC1CCC1)c1ccc(S(N)(=O)=NC(=O)Nc2c3c(cc4c2CC4)CCC3)c(F)c1 (single isomer, unassigned) [Example 848, (S, R) or (R, R) -4-(1-(cyclobutylamino)ethyl)-2-fluoro-N′-((2,4,5,6-tetrahydro-1H-cyclobula[f]inden-3-yl)carbamoyl)benzenesulfonimidamide]
- IC50 [1]: 0.2 to 1 µM

Structure (SMILES): CC(C)(O)c1sc(S(N)(=O)=NC(=O)Nc2c3c(cc4c2CCC4)CCC3)nc1CO (stereo not drawn) [Compound 893]
- IC50 [2]: 0.04 to 0.2 µM

Structure (SMILES): CC(C)n1nc(S(N)(=O)=NC(=O)Nc2c3c(cc4c2C(=O)CC4)CCC3)cc1CO (stereo not drawn) [compound 739, 5-(Hydroxymethyl)-1-isopropyl-N′-((3-oxo-1,2,3,5,6,7-hexahydro-s-indacen-4-yl)carbamoyl)-1H-pyrazole-3-sulfonimidamide]
- IC50 [3]: 1 to 5 µM

Structure (SMILES): CN(C)Cc1ccc(S(N)(=O)=NC(=O)Nc2c3c(cc4c2CC4)CCC3)cc1 (single isomer, unassigned) [Example 580, (R) or (S)-4-((dimethylamino)methyl)-N′-((2,4,5,6-tetrahydro-1H-cyclobuta[f]inden-3 - yl)carbamoyl) benzenesulfonimidamide]
- IC50 [4]: 0.2 to 1 µM

Structure (SMILES): CC(C)(O)c1ncc(S(N)(=O)=NC(=O)Nc2c3c(cc4c2CCC4O)CCC3)s1 (single isomer, unassigned) [Example 338, (R, S) or (R, R)-N′-((1-hydroxy-1,2,3,5,6,7-hexa-hydro-s-indacen-4-yl)-carbamoyl)-2-(2-hydroxy-propan-2-yl)thiazole-5-sulfonimidamide]
- IC50 [5]: 1 to 5 µM

Structure (SMILES): CNCc1csc(S(N)(=O)=NC(=O)Nc2c3c(cc4c2CC4)CCC3)c1 (stereo not drawn) [Example 722, 4-((Methylamino)methyl)-N′-((2,4,5,6-tetrahydro-1H-cyclobuta[f]inden-3-yl)carbamoyl)thiophene-2-sulfonimidamide]
- IC50 [3]: 0.04 to 0.2 µM

Structure (SMILES): CC(NC1CCC1)c1ccc(S(N)(=O)=NC(=O)Nc2c3c(cc4c2CC4)CCC3)c(F)c1 (stereo not drawn) [Example 725, 4-(1-(cyclobutylamino)ethyl)-2-fluoro-N′-((2,4,5,6-tetrahydro-1H-cyclobuta[f]inden-3-yl)carbamoyl)benzenesulfonimidamide]
- IC50 [1]: 0.2 to 1 µM

Structure (SMILES): NS(=O)(=NC(=O)Nc1c2c(cc3c1CC3)CCC2)c1sc(CN2CCC2)cc1F (single isomer, unassigned) [Example 843, (R) or (S)-5-(azetidin-1-ylmethyl)-3-fluoro-N′-((2,4,5,6-tetrahydro-1H-cyclobuta[f]inden-3-yl)carbamoyl)thiophene-2-sulfonimidamide]
- IC50 [1]: 0.04 to 0.2 µM

Structure (SMILES): CC(C)(O)c1ccnc(S(N)(=O)=NC(=O)Nc2c3c(c(C#N)c4c2CCC4)CCC3)c1 (stereo not drawn) [Example 681, N′-((8-cyano-1,2,3,5,6,7-hexahydro-s-indacen-4-yl)carbamoyl)-4-(2-hydroxypropan-2-yl)pyridine-2-sulfonimidamide]
- IC50 [2]: 0.2 to 1 µM

Structure (SMILES): C[C@@](O)(CN)c1ncc(S(N)(=O)=NC(=O)Nc2c3c(cc4c2CCC4)CCC3)s1 (stereo partly drawn) [Example 673, 2-((R)-1-amino-2-hydroxypropan-2-yl)-N′-((1,2,3,5,6,7-hexahydro-s-indacen-4-yl)carbamoyl)thiazole-5-sulfonimidamide]
- IC50 [2]: 0.04 to 0.2 µM

Structure (SMILES): CC(C)n1nc(S(N)(=O)=NC(=O)Nc2c3c(cc4c2C(=O)CC4)CCC3)cc1C(C)(C)O (stereo not drawn) [Example 740, 5-(2-Hydroxypropan-2-yl)-1-isopropyl-N′-((3-oxo-1,2,3,5,6,7-hexahydro-s-indacen-4-yl)carbamoyl)-1H-pyrazole-3-sulfonimidamide]
- IC50 [3]: 0.2 to 1 µM

Structure (SMILES): CN(Cc1ccc([S@](N)(=O)=NC(=O)Nc2c3c(cc4c2CCC4)CCC3)cc1)C1CCC1 [Example 709, (R)-4-((cyclobutyl(methyl)amino)methyl)-N′-((1,2,3,5,6,7-hexahydro-s-indacen-4-yl)-carbamoyl)benzenesulfonimidamide]
- IC50 [2]: 0.2 to 1 µM

Structure (SMILES): CC(C)(O)c1ncc(S(N)(=O)=NC(=O)Nc2c3c(cc4c2CCC4=O)CCC3)s1 (single isomer, unassigned) [Example 336, (R) or (S)-2-(2-Hydroxy-propan-2-yl)-N′-((1-oxo-1,2,3,5,6,7-hexahydro-s-indacen-4-yl)carbamoyl)-thiazole-5-sulfonimidamide]
- IC50 [5]: 0.2 to 1 µM

Structure (SMILES): CNCc1csc(S(N)(=O)=NC(=O)Nc2c3c(cc4c2CCC4)CCC3)c1 (single isomer, unassigned) [Example 691, (R) or (S)-N′-((1,2,3,5,6,7-hexahydro-s-indacen-4-yl)carbamoyl)-4-((methylamino)methyl)thiophene-2-sulfonimidamide]
- IC50 [4]: 0.04 to 0.2 µM

Structure (SMILES): CN1CCC(c2ccc(S(N)(=O)=NC(=O)Nc3c4c(cc5c3CCC5)CCC4)c(F)c2)C1 (stereo not drawn) [Compound 899]
- IC50 [2]: 5 to 30 µM

Structure (SMILES): COCc1nc(C(C)(C)O)sc1S(N)(=O)=NC(=O)Nc1c2c(c(C#N)c3c1CCC3)CCC2 (stereo not drawn) [Example 454, N′-((8-cyano-1,2,3,5,6,7-hexahydro-s-indacen-4-yl)carbamoyl)-2-(2-hydroxypropan-2-yl)-4-(methoxymethyl)thiazole-5-sulfonimidamide]
- IC50 [4]: 0.2 to 1 µM

Structure (SMILES): CC(C)(O)c1csc(S(N)(=O)=NC(=O)Nc2c3c(c(C#N)c4c2CCC4)CCC3)n1 (single isomer, unassigned) [Example 541, (R) or (S)-N′-((8-cyano-1,2,3,5,6,7-hexahydro-s-indacen-4-yl)carbamoyl)-4-(2-hydroxypropan-2-yl)thiazole-2-sulfonimidamide]
- IC50 [4]: 0.04 to 0.2 µM

Structure (SMILES): CCCc1c2c(c(NC(=O)N=S(N)(=O)c3cc(C(C)(C)O)n(-c4ccccc4)n3)c3c1CCC3)CCC2 (stereo not drawn) [Example 513, 5-(2-hydroxypropan-2-yl)-1-phenyl-N′-((8-propyl-1,2,3,5,6,7-hexahydro-s-indacen-4-yl)carbamoyl)-1H-pyrazole-3-sulfonimidamide]
- IC50 [2]: 5 to 30 µM

Structure (SMILES): CC(C)n1nc(S(N)(=O)=NC(=O)Nc2c3c(cc4c2C(=O)CC4)CCC3)cc1C(C)(C)O (single isomer, unassigned) [Example 805, (R) or (S)-5-(2-hydroxypropan-2-yl)-1-isopropyl-N′-((3-oxo-1,2,3,5,6,7-hexahydro-s-indacen-4-yl)carbamoyl)-1H-pyrazole-3-sulfonimidamide]
- IC50 [1]: 0.2 to 1 µM

Structure (SMILES): C[C@@](O)(COCCOCc1ccccc1)c1ncc(S(N)(=O)=NC(=O)Nc2c3c(cc4c2CCC4)CCC3)s1 (stereo partly drawn) [Example 683, 2-((R)-1-(2-(benzyloxy)ethoxy)-2-hydroxypropan-2-yl)-N′-((1,2,3,5,6,7-hexahydro-s-indacen-4-yl)carbamoyl)thiazole-5-sulfonimidamide]
- IC50 [2]: 0.2 to 1 µM

Structure (SMILES): CN(C)Cc1ccc(S(N)(=O)=NC(=O)Nc2c3c(cc4c2CC4)CCC3)cc1 (single isomer, unassigned) [Example 581, (S) or (R)-4-((dimethylamino)methyl)-N′-((2,4,5,6-tetrahydro-1H-cyclobuta[f]inden-3-yl)carbamoyl) benzenesulfonimidamide]
- IC50 [4]: 5 to 30 µM

Structure (SMILES): COC1CCc2c(csc2S(N)(=O)=NC(=O)Nc2c3c(cc4c2CCC4)CCC3)C1 (stereo not drawn) [Example 774, N′-((1,2,3,5,6,7-hexahydro-s-indacen-4-yl)carbamoyl)-5-methoxy-4,5,6,7-tetrahydrobenzo[c]thiophene-1-sulfonimidamide]
- IC50 [3]: 1 to 5 µM

Structure (SMILES): NS(=O)(=NC(=O)Nc1c2c(cc3c1CCC3)CCC2)c1cc2c(s1)CCNC2 (single isomer, unassigned) [Example 787, (R) or (S)-N′-((1,2,3,5,6,7-hexahydro-s-indacen-4-yl)carbamoyl)-4,5,6,7-tetrahydrothieno[3,2-c]pyridine-2-sulfonimidamide]
- IC50 [1]: 0.04 to 0.2 µM

Structure (SMILES): CN(C)Cc1cnc(S(N)(=O)=NC(=O)Nc2c3c(cc4c2CCC4)CCC3)c(F)c1 (single isomer, unassigned) [Example 518, (R) or (S)-5-((dimethylamino)methyl)-3-fluoro-N′-((1,2,3,5,6,7-hexahydro-s-indacen-4-yl)carbamoyl) pyridine-2-sulfonimidamide]
- IC50 [4]: 1 to 5 µM

Structure (SMILES): CC(O)(CO)c1ncc(S(N)(=O)=NC(=O)Nc2c3c(c(C#N)c4c2CCC4)CCC3)s1 (mixture of isomers) [Example 635, (R,S) and (S,S)-N′-((8-cyano-1,2,3,5,6,7-hexahydro-indacen-4-yl)carbamoyl)-2-(1,2-dihydroxypropan-2-yl)thiazole-5-sulfonimidamide (mixture of two isomers)]
- IC50 [4]: 5 to 30 µM

Structure (SMILES): CC(C)(O)c1ccc(S(N)(=O)=NC(=O)Nc2c3c(cc4c2CCC4)CCC3)c(F)c1 (single isomer, unassigned) [Example 87]
- IC50 [5]: 0.04 to 0.2 µM

Structure (SMILES): CN1CCCC(c2ccc(S(N)(=O)=NC(=O)Nc3c4c(cc5c3CC5)CCC4)c(F)c2)C1 (single isomer, unassigned) [Example 859, (S, R) or (R, R)-2-fluoro-4-(1-methylpiperidin-3-yl)-N′-((2,4,5,6-tetrahydro-1H-cyclobuta[f]inden-3-yl)carbamoyl)benzenesulfonimidamide]
- IC50 [1]: 1 to 5 µM

Structure (SMILES): CC(O)(CO)c1cc(F)c(S(N)(=O)=NC(=O)Nc2c3c(c(C#N)c4c2CCC4)CCC3)s1 (single isomer, unassigned) [Example 632]
- IC50 [4]: 5 to 30 µM

Structure (SMILES): NS(=O)(=NC(=O)Nc1c2c(cc3c1CC3)CCC2)c1cc2c(s1)CCN(CC(F)F)C2 (single isomer, unassigned) [Example 872, (R) or (S) -5-(2,2-difluoroethyl)-N′-((2,4,5,6-tetrahydro-1H-cyclobuta[f]inden-3-yl)carbamoyl)-4,5,6,7-tetrahydrothieno[3,2-c]pyridine-2-sulfonimidamide]
- IC50 [1]: 1 to 5 µM

Structure (SMILES): C[C@@](O)(COCCO)c1ncc(S(N)(=O)=NC(=O)Nc2c3c(cc4c2CCC4)CCC3)s1 (stereo partly drawn) [Example 677, N′-((1,2,3,5,6,7-hexahydro-s-indacen-4-yl)carbamoyl)-2-((R)-2-hydroxy-1-(2-hydroxyethoxy)propan-2-yl)thiazole-5-sulfonimidamide]
- IC50 [2]: 0.04 to 0.2 µM
